Patent publication US20240307326A1, “DOSAGE FORMS OF MIRDAMETINIB” (SpringWorks Therapeutics, Inc., priority 2023, published 2024)

Tests used:
[1] = Particle size of mirdametinib drug substance lots (laser diffraction particle sizing); type: physicochemical; conditions: mirdametinib free base drug substance
Description: As used herein, “D50” or “d50”, also known as the median diameter, corresponds to the value under which 50% of the particles has a lower volume diameter. “D90” or “d90” corresponds to the value under which 90% of the particles has a lower volume diameter. The particle size may be measured using wet standard laser diffraction particle sizing techniques known in the art. One example of an instrument to measure the particle size of the dry powders is the Mastersizer 3000, manufactured by Malvern Panalytical Ltd. (Malvern, UK). As particles are often non-spherical, it is difficult and complex to provide dimensional descriptions of these non-spherical particles. As used herein, “volume diameter” refers to diameter of a sphere with equal volume of the non-spherical particle.
(§1) Mirdametinib free base (Lots #1, 2, and 3) having the properties in the table below were prepared.

[2] = Bulk and tap density, Carr's Index of drug substance lots; type: physicochemical; conditions: mirdametinib free base drug substance
Method: as §1

Row | D10 [1] [μm] | D50 [1] [μm] | D90 [1] [μm] | Bulk density [2] [g/mL] | Carr's Index [2] | Tap density [2] [g/mL] | Compound
1 | 17.8 | 46.5 | 217.1 | – | – | – | O=C(NOC[C@H](O)CO)c1ccc(F)c(F)c1Nc1ccc(I)cc1F [Lot 3, N—((R)-2,3-dihydroxypropoxy)-3,4-difluoro-2-(2-fluoro-4-iodo-phenylamino)benzamide]
2 | 4.9 | 20.9 | 101.5 | 0.169 | 57.1 | 0.394 | O=C(NOC[C@H](O)CO)c1ccc(F)c(F)c1Nc1ccc(I)cc1F [Lot 1, N—((R)-2,3-dihydroxypropoxy)-3,4-difluoro-2-(2-fluoro-4-iodo-phenylamino)benzamide]
3 | 7.6 | 28.4 | 120.7 | 0.197 | 54.6 | 0.434 | O=C(NOC[C@H](O)CO)c1ccc(F)c(F)c1Nc1ccc(I)cc1F [Lot 2, N—((R)-2,3-dihydroxypropoxy)-3,4-difluoro-2-(2-fluoro-4-iodo-phenylamino)benzamide]
